# Laboratory results: article PMC9858421 (Journal of Enzyme Inhibition and Medicinal Chemistry, 2023)
# Entries after “also recorded” stand apart in the source; their conditions may differ. Like-named read-outs stand apart in the source and are kept apart here.
# What was measured:
# hVDAC1 [1] = target: T1, hVDAC1 (Homo sapiens, UniProt P21796); assay: MST binding check; settings: 100 nM hVDAC1, highest soluble ligand concentration
# hVDAC1 [2] = target: T1, hVDAC1; assay: NanoDSF thermal shift; assay type: binding; settings: hVDAC1 in LDAO; compared to hVDAC1 alone at 0% or 5% DMSO
# hVDAC1 [3] = target: T1, hVDAC1; assay: MST dose-response experiment; assay type: binding
# rVDAC1 = settings: cited from earlier work
# VDAC1 = settings: PLB, cited from earlier work
# hVDAC1 [4] = target: T1, hVDAC1; settings: read-out: Published Kd; cited from earlier work
# [5] = MST dose-response, 100 nM hVDAC1, 16 concentrations
# T1 sequence (P21796 whole entry): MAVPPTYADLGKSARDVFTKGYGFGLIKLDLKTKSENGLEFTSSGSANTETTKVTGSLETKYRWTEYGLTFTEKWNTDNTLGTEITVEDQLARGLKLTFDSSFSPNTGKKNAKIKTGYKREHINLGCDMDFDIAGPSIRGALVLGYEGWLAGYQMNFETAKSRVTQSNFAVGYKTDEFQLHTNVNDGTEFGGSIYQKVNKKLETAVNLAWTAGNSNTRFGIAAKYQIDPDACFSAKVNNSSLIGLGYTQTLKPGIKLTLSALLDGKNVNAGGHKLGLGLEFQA
Structure (SMILES),MST Binding Check (hVDAC1 [1]),"Tm shift in NanoDSF (direction / significance, in words) (hVDAC1 [2])",Kd (hVDAC1 [3]),also measured
CC(=O)Oc1ccccc1C(=O)O [Aspirin],Positive,,,MST Binding Check (hVDAC1 [1]; listed as aspirin): validated by binding check
C=C(C)[C@@H]1CCC(C)=C[C@H]1c1c(O)cc(CCCCC)cc1O [Cannabidiol],Positive,increase the Tm; also recorded: positive,6 ± 2 µM,"Kd (hVDAC1 [3]; [5]): < 10 µM; Kd (rVDAC1; read-out: Published Kd, listed as cannabidiol): 11 µM; Kd (rVDAC1; read-out: Published Kd): 11.2 µM; Effect(s) on activity (VDAC1; MST): Reduces conductance Increases mitochondrial Ca^2+"
O.Oc1cc(O)c2c(c1)O[C@H](c1ccc(O)c(O)c1)[C@@H](O)C2 [Catechin],,increase the Tm; also recorded: significant Tm shift,,
COc1cc(/C=C/C(=O)CC(=O)/C=C/c2ccc(O)c(OC)c2)ccc1O [Curcumin],Positive,negative Tm shift,6 ± 1 µM,Kd (hVDAC1 [3]; [5]): < 10 µM; Effect(s) on activity (VDAC1): Reduces conductance by promoting closed state(s)
C(=NC1CCCCC1)=NC1CCCCC1 [DCCD],Positive,increase the Tm,,"Effect(s) on activity (VDAC1; NMR, [14C] DCCD-labelled VDAC1): Reduces conductance Inhibits HK-VDAC1 binding"
O=C(O)c1ccccc1Nc1ccccc1 [DPC],validated by binding check; also recorded: Positive,negative Tm shift,,Kd (rVDAC1; read-out: Published Kd): 150 µM; Effect(s) on activity (VDAC1; MST): Reduces conductance Prevents oligomerization
Cc1cc(O)c2c(c1)C(=O)c1cc(O)cc(O)c1C2=O [Emodin],Positive,not been confirmed as VDAC1 ligands; also recorded: no significant changes in Tm,10 ± 5 µM,MST Binding Check (hVDAC1 [1]; listed as emodin): binding was shown
CNCCC(Oc1ccc(C(F)(F)F)cc1)c1ccccc1 (centres unmarked) [Fluoxetine],,,,Effect(s) on activity (VDAC1): Reduces conductance Prevents Cyto C release
CCC(C)n1ncn(-c2ccc(N3CCN(c4ccc(OCC5COC(Cn6cncn6)(c6ccc(Cl)cc6Cl)O5)cc4)CC3)cc2)c1=O (centres unmarked) [Itraconazole],Positive,,5 ± 2 µM,MST Binding Check (hVDAC1 [1]; listed as itraconazole): binding was shown; Kd (rVDAC1; read-out: Published Kd): 120 µM
CN(C)C(=N)N=C(N)N [Metformin],Positive,not been confirmed as VDAC1 ligands,,MST Binding Check (hVDAC1 [1]; listed as metformin): validated by binding check; Effect(s) on activity (VDAC1; MST): Reduces conductance No binding observed by MST
NC(=O)C1=CN([C@@H]2O[C@H](COP(=O)(O)OP(=O)(O)OC[C@H]3O[C@@H](n4cnc5c(N)ncnc54)[C@H](O)[C@@H]3O)[C@@H](O)[C@H]2O)C=CC1 [NADH],validated by binding check; also recorded: Positive,not been confirmed as VDAC1 ligands,,Kd (hVDAC1 [4]): 9000 µM; Effect(s) on activity (VDAC1; NMR): Affects gating without reducing the conductance Sterically closes the channel
CC(C)CCC[C@@H](C)[C@H]1CC[C@H]2[C@@H]3CCC4=CC(=NO)CC[C@]4(C)[C@H]3CC[C@]12C [Olesoxime],Positive,negative Tm shift,,MST Binding Check (hVDAC1 [1]; listed as olesoxime): validated by binding check; Effect(s) on activity (VDAC1): Reduces conductance
CC(C)c1cccc(C(C)C)c1O [Propofol],Positive,increase the Tm,> 650 µM,Effect(s) on activity (VDAC1): Promotes closure when a negative voltage is applied No effects on open state conductance
C=C[C@H]1C[N@@]2CC[C@H]1C[C@@H]2[C@@H](O)c1ccnc2ccc(OC)cc12 [Quinidine],Positive,negative Tm shift,,MST Binding Check (hVDAC1 [1]; listed as quinidine): validated by binding check
